Earlier results as cited in US20230193011A1, “COLOR CHANGING POLYMERIC RESIN COMPOSITIONS” (ECOLAB USA INC., priority 2021, published 2023).
Read-outs that look alike come from different tables or passages of the source.

Settings: for High pH color: color above the transition range; for Low pH color: color below the transition range; for pH start: pH at which the color change begins; for pH end: pH at which the color change ends
[1] = listed as Malachite green - step 2

Compound | High pH color | Low pH color | pH start | pH end | pKa | further results
Cc1cc(C2(c3cc(C)c(O)c(Br)c3)OS(=O)(=O)c3ccccc32)cc(Br)c1O [Bromocresol purple] | purple | yellow | 5.2 | 6.8 | 6.4 | 
CN(C)c1ccc(C(=C2C=CC(=[N+](C)C)C=C2)c2ccccc2)cc1 [Malachite green - step 1, Malachite green] | green | yellow | 0.2 | 1.8 |  | High pH color [1]: colorless; Low pH color [1]: green; pH start [1]: 11.5; pH end [1]: 13.2
O=C(O)c1cc(N=Nc2ccc([N+](=O)[O-])cc2)ccc1O [Alizarin yellow R] | red | yellow | 10.1 | 12.0 | 11.2 | 
Cc1c(C2(c3cc(Br)c(O)c(Br)c3C)OS(=O)(=O)c3ccccc32)cc(Br)c(O)c1Br [Bromocresol green] | blue | yellow | 3.8 | 5.4 | 4.7 | 
Azolitmin [Azolitmin (litmus)] | blue | red | 4.5 | 8.3 |  | 
O=S1(=O)OC(c2cc(Br)c(O)c(Br)c2)(c2cc(Br)c(O)c(Br)c2)c2ccccc21 [Bromophenol blue] | blue | yellow | 3.0 | 4.6 |  | 
Cc1cc(C2(c3ccc(O)c(C)c3)OS(=O)(=O)c3ccccc32)ccc1O [Cresol red - step 1, Cresol red] | yellow | red | 0.2 | 1.8 |  | High pH color (listed as Cresol red - step 2): reddish-; Low pH color (listed as Cresol red - step 2): yellow; pH start (listed as Cresol red - step 2): 7.2; pH end (listed as Cresol red - step 2): 8.8
CN(C)c1ccc(N=Nc2ccccc2)cc1 [Methyl yellow] | yellow | red | 2.9 | 4.0 | 3.3 | 

Now from value to compound, other results behind:

High pH color | Low pH color | pH start | pH end | pKa | Compound | further results
greenish- | pale red | 7.3 | 8.7 |  | O=C1OC(c2ccc(O)c3ccccc23)(c2ccc(O)c3ccccc23)c2ccccc21 [Naphtholphthalein] | 
blue | colorless | 9.0 | 10.5 | 9.2 | Cc1cc(O)c(C(C)C)cc1C1(c2cc(C(C)C)c(O)cc2C)OC(=O)c2ccccc21 [Thymolphthalein] | 
yellow | red | 3.1 | 4.4 | 3.5 | CN(C)c1ccc(N=Nc2ccc(S(=O)(=O)[O-])cc2)cc1.[Na+] [Methyl orange] | 
green | purple | 4.8 | 5.4 |  | Methyl purple | 
blue | yellow | 6.0 | 7.6 |  | Cc1c(C2(c3cc(C(C)C)c(O)c(Br)c3C)OS(=O)(=O)c3ccccc32)cc(C(C)C)c(O)c1Br [Bromothymol blue] | 
purple | colorless | 8.2 | 9.8 |  | Cc1cc(C2(c3ccc(O)c(C)c3)OC(=O)c3ccccc32)ccc1O [Cresolphthalein] | 
yellow | red | 4.4 | 6.2 | 5.1 | CN(C)c1ccc(/N=N/c2ccccc2C(=O)O)cc1 [Methyl red] | 
yellow | blue | 11.4 | 13.0 |  | O=C1/C(=C2\Nc3ccc(S(=O)(=O)[O-])cc3C2=O)Nc2ccc(S(=O)(=O)[O-])cc21.[Na+].[Na+] [Indigo carmine] | 
red-pink | colorless | 8.3 | 10.0 | 9.5 | O=C1OC(c2ccc(O)cc2)(c2ccc(O)cc2)c2ccccc21 [Phenolphthalein] | 
yellow | red | 6.8 | 8.0 |  | Cc1cc2nc3ccc(N(C)C)cc3nc2cc1N.Cl [Neutral red] | 
red | blue-violet | 3.0 | 5.0 |  | Nc1c(/N=N/c2ccc(-c3ccc(/N=N/c4cc(S(=O)(=O)O)c5ccccc5c4N)cc3)cc2)cc(S(=O)(=O)O)c2ccccc12 [Congo red] | 
yellow | red | 1.2 | 2.8 | 1.7 | Cc1cc(O)c(C(C)C)cc1C1(c2cc(C(C)C)c(O)cc2C)OS(=O)(=O)c2ccccc21 [Thymol blue - step 1, Thymol blue] | High pH color (listed as Thymol blue - step 2): blue; Low pH color (listed as Thymol blue - step 2): yellow; pKa (listed as Thymol blue - step 2): 9.2; pH start (listed as Thymol blue - step 2): 8.0; pH end (listed as Thymol blue - step 2): 9.6
